Experimental data taken from US9828622B2, “Photoactivatable antimicrobial agents and therapeutic and diagnostic methods of using same” (The General Hospital Corporation, priority 2008, dated 2017).
Entries after “also recorded” stand apart in the source; their conditions may differ. Like-named read-outs stand apart in the source and are kept apart here.

Legend:
[1] = test system: B. cereus; assay: Growth inhibition / MIC assay; type: cell-based, Bacillus cereus
Procedure: (§1) (a.) inhibition constants of a panel of β-lactams for the competitive substrate inhibition of β-LEAP hydrolysis by B. cereus β-lactamase, (b.) inhibition constants for β-LEAP hydrolysis by bacterial suspensions, (c.) inhibition profiles of panel of β-lactams for B. cereus, (d.) MICs of panel of β-lactams for B. cereus. […] Statistical significance was determined via Tukey multiple comparison test using Graphpad Prism 5. Horizontal bars connected by solid intersections indicate significant difference.
(§2) This approach involved combining in a 384 multi-well assay plate format purified B. cereus beta-lactamase or bacterial suspensions with the β-LEAP of the invention and a competitive beta-lactam substrate, including amoxicillin, clavulanic acid, ampicillin, penicillin G, carbenicillin, cefazolin, cefatoxime or ceftazidime.

[2] = target: purified B. cereus beta-lactamase; assay: Competitive substrate inhibition of β-LEAP hydrolysis, purified enzyme; type: biochemical, Bacillus cereus; settings: competitive beta-lactam substrate; 384 multi-well plate
Procedure: as §1
(§3) This Example describes a new methodology for use in characterizing beta-lactamases by using a competitive substrate inhibition assay. It is believed that no competitive substrate inhibition assays for determining beta-lactamase functionality are currently in use by clinical microbiology laboratories. This new approach is based on exploiting the sensitivity and mechanism of the β-LEAP compound of the invention. More in particular, this approach is based on measuring the level of induced-fluorescence caused by the cleavage/hydrolysis and consequent activation of the β-LEAP compound by beta-lactamase enzymes under evaluation while also in the presence of, or “in competition” with, different types and amounts of beta-lactamase enzyme substrates. The degree of inhibition of β-LEAP hydrolysis/fluorescence due to competition with the beta-lactam competitor substrates is determined, which provides the basis for determining beta-lactamase functionality.
as §2

[3] = target: Bacillus cereus 5/β bacterial suspensions; assay: Competitive substrate inhibition of β-LEAP hydrolysis, bacterial suspensions; type: cell-based; settings: competitive beta-lactam substrate; whole bacteria suspensions
Procedure: as §1, §3, §2

[4] = Photosensitizing efficacy
Description: The terminal carboxyl group with the flexible alkyl chain provides an ideal site for conjugation. 7-amino-3-chloromethyl-3-cephem-4-carboxylic acid p-methoxybenzyl ester (ACLE, commercial available) is used as cephalosporin scaffold. ACLE is a common starting material to synthesize cephalosporin derivatives. It integrates an amino group at 7-position. By replacing chlorine at 3′-position with 4-amino-thiophenol provides an additional amino group therefore each ACLE molecule can accommodate two EtNBS-COOH molecules to form a static quenching pair.

Compound | in vitro growth inhibition (MIC assay) [1] | inhibition of β-LEAP hydrolysis/fluorescence (inhibition constants, Ki, FIG. 13a) [2] | inhibition of β-LEAP hydrolysis/fluorescence (inhibition constants, Ki, FIG. 13b) [3] | also measured
CC1(C)S[C@@H]2[C@H](NC(=O)[C@H](N)c3ccc(O)cc3)C(=O)N2[C@H]1C(=O)O [amoxicillin] | no inhibition | detected |  | in vitro growth inhibition (MIC assay) ([1]; listed as Amoxicillin): did not inhibit the growth
CC1(C)S[C@@H]2[C@H](NC(=O)[C@H](N)c3ccccc3)C(=O)N2[C@H]1C(=O)O [ampicillin] | did not inhibit the growth | detected |  | in vitro growth inhibition (MIC assay) ([1]; listed as ampillin): no inhibition
CC(C)(O/N=C(\C(=O)N[C@@H]1C(=O)N2C(C(=O)[O-])=C(C[n+]3ccccc3)CS[C@H]12)c1csc(N)n1)C(=O)O [ceftazidime] |  | more effective inhibitors | more effective inhibitors | 
CO/N=C(\C(=O)N[C@@H]1C(=O)N2C(C(=O)O)=C(COC(C)=O)CS[C@H]12)c1csc(N)n1 [cefatoxime] |  | more effective inhibitors | more effective inhibitors | 
cephalothin |  | more effective inhibitors | more effective inhibitors | 
O=C(O)[C@H]1/C(=C/CO)O[C@@H]2CC(=O)N21 [clavulanic acid] | no inhibition; also recorded: did not inhibit the growth |  |  | 
CCN(CC)c1ccc2nc3c(cc(NCCCCC(=O)O)c4ccccc43)[s+]c2c1 [EtNBS-COOH, 5-(4′-carboxybutylamino)-9-diethylaminobenzo[a]phenothiazine] |  |  |  | photosensitizing efficacy [4]: excellent photosensitizing efficacy
